In patent US5707963A, “Methods of using growth inhibitory peptides” (Health Research, Incorporated, priority 1996, dated 1998):
Where “and” joins values, the source holds several entries; their conditions need not be identical. Equal values may be shown once. Read-outs that look alike come from different tables or passages of the source.

Legend:
[1] = tested on: estrogen-stimulated growth of mouse uterus; assay type: in vivo
Description: An in vivo wet weight bioassay measuring inhibition of estrogen-stimulated growth of uteri was performed. The procedure of Mizejewski et al. was used for the wet weight assay (see Mizejewski, G. J. et al. (1983); Mizejewski, G. J. et al. (1986); Mizejewski, G. J. and A. S. Warner (1989); Mizejewski, G. J. et al., "Separation of the Estrogen-Activated Growth-Regulatory Forms of Alpha-Fetoprotein in Mouse Amniotic Fluid," Biol of Reprod 42:887-898 (1990); and Allen, S.H.G. et al. (1993)).
Briefly, the synthesized powdered peptide was reconstituted in saline (1 mg/ml) to form a stock solution of the GIP. The stock solution was appropriately diluted to provide dosages of 25 to 100 ng/mouse. 0.1 ml of the appropriately diluted GIP was injected intraperitoneally into 15-18 day old Nya:NYLAR female mice. Control mice were injected with saline or other peptides, including a peptide encoded by a portion of the amino acid sequence of albumin and a random 34 amino acid peptide. 1 hour after this first injection, an estrogen challenge of 0.5 micrograms of E2 in 0.1 ml saline was given to determine the change in uterine responsiveness to E2 resulting from exposure to the first injection. 23 hours after the second injection, uteri were dissected, trimmed free of connective tissue and immediately weighed. The uterine wet weights were normalized to mouse body weight (mg uterine weight/g of body weight) to compensate for differences in body weight among litters of the same age. Percent inhibition of estrogen-stimulated uterine growth was calculated as described by Mizejewski et al. (1983).
Two separate bioassays for inhibition of estrogen-stimulated growth were used. The first was an in vivo bioassay measuring an estrogen-induced increase in wet weight of the immature mouse uterus in a 24-hour determination. Dosages of peptide fragments ranged from 10 to 100 ng, and the %inhibition given in Table 6 represents the peak assay point of the dilution series.

[2] = tested on: human MCF-7 breast cancer cells; assay: In vitro MCF-7 focus assay (estrogen-induced foci formation); assay type: cell-based; details: for Percent Foci Inhibition: MCF-7 Cell Culture
Excerpt: In an in vitro bioassay, the MCF-7 focus assay was used for preliminary evaluation of the GIP preparation for both estrogenicity and antiestrogenicity. One of the major consequences of human estrogen exposure is induction of cell proliferation and subsequent structural rearrangement of the acini, a process based on the interactions of multiple estrogen dependent gene expressions. […] The estrogen dependent MCF-7 cell proliferation is primarily a postconfluent event which leads to development of multicellular aggregates (foci). […] The procedure of Gierthy et al. was used for the MCF-7 assay of the GIP (see Gierthy, J. F. et al., "Correlation of in Vitro and in Vivo Growth Suppression of MCF-7 Human Breast Cancer by 2,3,7,8-Tetrachlorodibenzo-p-dioxin" Cancer Research 53:3149-3153 (1993)).
Briefly, stock MCF-7 cells were suspended in medium (see Gierthy, J. F. et al. 1993) after treatment with trypsin (0.25%) and seeded into 24-well plastic tissue culture plates. The MCF-7 cells were seeded (2 cm^2 /well) at a density of b 10^5 cells/well in 1 ml of medium, and incubated at 37° C. in a humidified atmosphere containing 5% CO2. The cultures were refed at 24 hours and every 4-5 days thereafter with 2 ml medium supplemented with 1×10^-9 M 17β-estradiol, a concentration which induces maximum focus development, and various concentrations of GIP (10^-8 M-10^-13 M) in nonestrogenic DC5 medium and estrogenic DF5 medium which contains high levels of bovine alpha-fetoprotein (5% fetal bovine serum supplemented). After 14 days the cultures were fixed with formalin in pH 7.4 buffer (see Gierthy, J. F. et al. 1993) and stained with 1% rhodamine B. Foci were counted by using an automated colony counter modified to magnify the image of the microscopic multicellular foci. The foci retained the red rhodamine B stain to a greater extent than did surrounding monolayer cells, affording appropriate contrast for enumeration.

[3] = tested on: human chorionic gonadotropin (HCG)-stimulated growth of mouse ovary; assay: In vivo wet weight bioassay, inhibition of HCG-stimulated growth of the ovary; details: for Percent Growth Inhibition: immature mouse ovary
Description: An in vivo wet weight bioassay measuring inhibition of human chorionic gonadotropin (HCG)-stimulated growth of the ovary was performed. The procedure of Mizejewski et al. (see previous citations) was used for the wet weight assay. The applicability of the wet weight bioassay for measuring HCG-stimulated growth of the ovary is disclosed by Mizejewski, G. J., "Human Chorionic Gonadotrophin: Comparative Studies of Ovarian Uptake In Mammals", Comp Biochem Physio 52A:29-34 (1975).
Briefly, the synthesized powdered peptide was reconstituted in saline (1 mg/ml) to form a stock solution of the GIP. The stock solution was appropriately diluted to provide dosages of 10ng to 100 μg/mouse. 0.1 ml of the appropriately diluted GIP was injected intraperitoneally into 15-18 day old Nya:NYLAR female mice. Control mice were injected with saline. 1 hour after this first injection, an HCG challenge of 2.8 I.U. of HCG in 0.05 ml saline was given to determine the change in ovarian responsiveness to HCG resulting from exposure to the first injection. 23 hours after the second injection, ovaries were dissected, trimmed free of connective tissue and immediately weighed. The ovarian wet weights were normalized to mouse body weight (mg ovarian weight/g of body weight) to compensate for differences in body weight among litters of the same age. Percent inhibition of HCG-stimulated ovarian growth was calculated as described by Mizejewski et al. (1983).

[4] = tested on: estrogen-stimulated growth of mouse uterus; assay type: in vivo; remark: listed apart in the source

Leu Ser Glu Asp Lys Leu Leu Ala Cys Gly Glu Gly Ala Ala Asp Ile ile Ile Gly His Leu Cys Ile Arg His Glu Met Thr Pro Val Ash Pro Gly Val (LSEDKLLACGEGAADIIIGHLCIRHEMTPVNPGV) [GIP]
inhibition of estrogen-stimulated growth (range over Table 1) ([1]; 25 to 100 ng/mouse, immature and adult mouse uterus): 33-79% | Percent Growth Inhibition ([1]; immature mouse uterus, 25 ng per mouse i.p., E2 challenge 0.5 micrograms): 33% | Percent Growth Inhibition ([1]; immature mouse uterus, 25 ng per mouse, added human AFP): 42% | Percent Growth Inhibition ([1]; immature mouse uterus, 50 ng per mouse i.p., E2 challenge 0.5 micrograms): 38% and 37% and 30-40% | Percent Growth Inhibition ([1]; immature mouse uterus, 100 ng per mouse i.p., E2 challenge 0.5 micrograms): 35% | inhibition of estrogen-stimulated growth ([1]; immature mouse uterus, peptide diluted 2,000-fold or more): 30-40% | dose with demonstrable activity without E2 activation prior to inoculation ([1]; mouse contains the circulating ligand (estrogen)): 100 ng/mouse | inhibition in the MCF-7 cell culture assays ([2]; 10^-10 to 10^-13 M peptide concentration): 60-70% | Percent Foci Inhibition ([2]; 14 days): 60-70% | Percent Foci Inhibition ([2]; peptide molarity 10^-11 -10^-13, 14 days): 60-74% and 50-60% | Percent Foci Inhibition ([2]; peptide molarity 10^-12, added human AFP): 40% | maximum inhibition of DF5 induced foci development ([2]; estrogenic DF5 medium, GIP 10^-10 to 10^-13 M): 74% | concentration at which estrogenic foci induction starts ([2]; nonestrogenic DC5 medium, dose responsive): 10^-8 M | inhibition of HCG-induced growth (range over Table 5) ([3]; 10ng to 100 μg/mouse): 22-100% | Percent Growth Inhibition ([3]; 100 ng per mouse): 70% | Percent Growth Inhibition ([3]; 125 ng per mouse): 50% | Percent Growth Inhibition ([3]; 250 ng per mouse): 56% | Percent Growth Inhibition ([3]; 500 ng per mouse): 67% | Percent Growth Inhibition ([3]; 1 μg per mouse): 100% and 79% | Percent Growth Inhibition ([3]; 10 μg per mouse): 94% | Percent Growth Inhibition ([3]; 100 μg per mouse i.p., HCG 2.8 I.U.): 22% | most effective dose ([3]; immature ovary, produced 100% growth inhibition): 1 μg/mouse | activity in adult cycling mice ([4]; adult cycling mice, with and without addition of purified human full-length AFP): active | Percent Growth Inhibition ([4]; adult mouse uterus, 25 ng per mouse): 66% | Percent Growth Inhibition ([4]; adult mouse uterus, 100 ng per mouse, added human AFP): 79% | inhibition of estrogen-stimulated growth ([4]; adult mouse uterus, peptide diluted 2,000-fold or more): 80%
